From patent US20040110718A1, “Anti-HCV nucleoside derivatives” (priority 2000, published 2004) come the findings set out here.

A word on the melting point: it is the temperature of the solid-liquid transition. As to `Nc1ncnc2c1nc(NCCc1ccc(S(N)(=O)=O)cc1)n2[C@@H]1O[C@H](CO)[C@@H](O)[C@H]1O`, the melting point was 157 to 163 °C (dec.).
`Nc1ncnc2c1nc(NCc1cccc3ccccc13)n2[C@@H]1O[C@H](CO)[C@@H](O)[C@H]1O` displayed a melting point of 140 to 150 °C.
The figure for `Cc1ccc(CCNc2nc3c(N)ncnc3n2[C@@H]2O[C@H](CO)[C@@H](O)[C@H]2O)cc1` is 117 to 124 °C (dec.); for `Nc1ncnc2c1nc(N1CCOCC1)n2[C@@H]1O[C@H](CO)[C@@H](O)[C@H]1O` it is 210 to 213 °C.
`Nc1ncnc2c1nc(NCCC1CCCCC1)n2[C@@H]1O[C@H](CO)[C@@H](O)[C@H]1O`: the melting point fell in the range of 203 to 205 °C.
For `O=c1ccn([C@@H]2O[C@H](CO)[C@@H](O)[C@H]2Cl)c(=O)[nH]1` the value was 206 to 207 °C; for `C=CCNc1nc2c(N)ncnc2n1[C@@H]1O[C@H](CO)[C@@H](O)[C@H]1O`, 234 to 237 °C (dec.).
`Nc1ncnc2c1nc(NCCCc1ccccc1)n2[C@@H]1O[C@H](CO)[C@@H](O)[C@H]1O` returned a melting point of 180 to 183 °C.
The figure for `Nc1ncnc2c1nc(NCCc1ccc(O)cc1)n2[C@@H]1O[C@H](CO)[C@@H](O)[C@H]1O` is 262 to 265 °C (dec.).
For `Nc1ncnc2c1nc(NCCc1c[nH]cn1)n2[C@@H]1O[C@H](CO)[C@@H](O)[C@H]1O` the value was 148 to 156 °C (dec.); for `Nc1ncnc2c1nc(NCCCCc1ccccc1)n2[C@@H]1O[C@H](CO)[C@@H](O)[C@H]1O`, 190 °C; for `OC[C@H]1O[C@@H](n2cnc3c(N4CCCC4)nc(Cl)nc32)[C@H](O)[C@@H]1O`, 229 °C.
For `OC[C@@H]1O[C@H](n2cnc3c(-n4cccc4)ncnc32)[C@@H](O)[C@H]1O` the value was 114 to 115 °C.
`CN(CCc1ccccc1)c1nc2c(N)ncnc2n1[C@@H]1O[C@H](CO)[C@@H](O)[C@H]1O` registered a melting point of 118 to 120 °C.
The figure for `Nc1ncnc2c1nc(NCCN1CCOCC1)n2[C@@H]1O[C@H](CO)[C@@H](O)[C@H]1O` is 210 to 215 °C; for `Nc1nc(-c2ccccc2)c2ncn([C@@H]3O[C@H](CO)[C@@H](O)[C@H]3O)c2n1` it is 187 to 190 °C; for `Nc1ncnc2c1nc(NCCc1ccc(Cl)cc1)n2[C@@H]1O[C@H](CO)[C@@H](O)[C@H]1O` it is 155 to 158 °C (dec.).
For `Nc1ncnc2c1nc(N1CCN(c3ccccc3)CC1)n2[C@@H]1O[C@H](CO)[C@@H](O)[C@H]1O` the value was 220 to 223 °C (dec.); for `O=c1ccn([C@@H]2O[C@H](CO)[C@@H](O)[C@H]2Br)c(=O)[nH]1`, 194 to 195 °C; for `Nc1ncnc2c1nc(NCc1cccnc1)n2[C@@H]1O[C@H](CO)[C@@H](O)[C@H]1O`, 235 to 237 °C (dec.).
For `Nc1ncnc2c1nc(NCCCCCCc1ccccc1)n2[C@@H]1O[C@H](CO)[C@@H](O)[C@H]1O`, the melting point is 165 to 167 °C.
Consider `Nc1ncnc2c1nc(NCCc1ccc(Cl)cc1Cl)n2[C@@H]1O[C@H](CO)[C@@H](O)[C@H]1O`, for which the melting point is 164 to 168 °C (dec.).
For `Nc1ncnc2c1nc(N1CCc3ccccc3C1)n2[C@@H]1O[C@H](CO)[C@@H](O)[C@H]1O` the value was 145 to 150 °C (dec.).
For `Nc1ncnc2c1nc(NCCCCCCc1ccccc1)n2[C@H]1C[C@H](O)[C@@H](CO)O1` the value was 159 to 161 °C; for `Nc1ncnc2c1nc(NCc1ccccc1)n2[C@H]1C[C@H](O)[C@@H](CO)O1`, 132 to 134 °C; for `Nc1ncnc2c1nc(N1CCCCC1)n2[C@@H]1O[C@H](CO)[C@@H](O)[C@H]1O`, 207 to 209 °C (dec.).
The molecule `OC[C@@H]1C[C@@H](O)[C@H](n2cnc3c(-n4cccc4)ncnc32)O1` yielded a melting point of 175 to 176 °C.
Molecule `CCc1cn([C@@H]2O[C@H](CO)[C@@H](O)[C@H]2O)c(=O)[nH]c1=O` gave a melting point of 180 to 181 °C.
